Laboratory results published in patent publication US4863933A, “3-hydroxypyridines” (Smith Kline & French Laboratories Limited, priority 1986, dated 1989).

What was measured:
[1] = target: T1, histamine H1-receptor (guinea pig ileum) (Cavia porcellus, UniProt P31389); assay: in vitro guinea pig ileum test (histamine H1-antagonist activity); assay type: cell-based; settings: isolated guinea pig ileum, magnesium free Tyrode solution, 30° C., 8 min contact, histamine as agonist; read-out: pA2 ileum (converted)
T1 construct: an isolated portion of the guinea pig ileum is secured under tension; from tissue; host or cells: isolated guinea pig ileum
T1 sequence (P31389 whole entry): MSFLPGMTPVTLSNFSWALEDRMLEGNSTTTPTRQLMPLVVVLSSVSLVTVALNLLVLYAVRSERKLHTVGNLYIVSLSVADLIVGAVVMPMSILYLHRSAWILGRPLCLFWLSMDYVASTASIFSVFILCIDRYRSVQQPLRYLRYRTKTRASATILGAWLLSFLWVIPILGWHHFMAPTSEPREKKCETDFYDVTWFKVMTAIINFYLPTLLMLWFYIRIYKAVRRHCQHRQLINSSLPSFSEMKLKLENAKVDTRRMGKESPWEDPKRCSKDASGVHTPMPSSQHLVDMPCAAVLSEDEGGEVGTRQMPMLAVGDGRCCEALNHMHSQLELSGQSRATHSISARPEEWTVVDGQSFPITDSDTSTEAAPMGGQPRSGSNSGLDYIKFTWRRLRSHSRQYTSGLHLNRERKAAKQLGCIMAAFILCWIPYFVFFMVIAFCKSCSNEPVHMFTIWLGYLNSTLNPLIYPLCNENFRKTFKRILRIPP
Method: In this test an isolated portion of the guinea pig ileum is secured under tension (500 mg) between an anchorage and a transducer in a 10 ml tissue bath and immersed in magnesium free Tyrode solution with constant aeration at a temperature of 30° C. The output from the transducer is amplified. The amplified output is in turn fed to a flat bed recorder. Measured amounts of histamine are added to the tissue bath so that the histamine concentration increases step-wise until the force of the contraction reaches a maximum. The tissue bath is washed out and filled with fresh magnesium free Tyrode solution containing compound under test. The solution is left in contact with the tissue for 8 min. and measured amounts of histamine are added again until a maximum contraction is recorded. The assay is repeated with increasing concentrations of test compound and the dose of histamine giving 50% of maximum contraction is noted. A dose ratio (DR) was calculated by comparing the concentrations of histamine required to produce 50% maximum response in the absence and in the presence of the antagonist. A plot of Log DR-1 against Log D (the concentration of compound under test) is made and the point of intersection with the Log (DR-1) ordinate is taken as the measure of the activity (pA2 value).

histamine H1-receptor = assay: in vivo inhibition of histamine induced bronchoconstriction in anaesthetised guinea pigs; settings: intravenous antagonist dose giving DR-1 = 10, histamine dose-response 5 minutes after antagonist
Method: Guinea pigs of either sex are anaesthetised by intraperitoneal injection of sodium pentobarbitone, 90 mg/kg. The trachea is cannulated. The animal is respired artificially with a fixed volume of air just adequate to inflate the lungs. The pressure needed to inflate the lungs is monitored from the respiratory system using a pressure transducer. Intravenous injection of histamine causes dose-dependent increases in the pressure to inflate the lungs reflecting the bronchoconstrictor action of histamine. Responses to histamine can be antagonised using histamine H1 -receptor antagonists.
Dose-response curves to histamine are established at 20, 40, 80, 160 and 320 nmols/kg. Antagonists are then administered by intravenous injection and 5 minutes later a new histamine dose-response curve is established increasing the doses of histamine as necessary. The effect of the antagonist can be quantified by the displacement, to the right, of the histamine dose-response curve, expressed as a dose-ratio. A series of doses of antagonists may be given to each animal allowing calculation of dose-ratios for each dose of antagonist.

Row | Kb [1] [nM] | Compound | Guinea Pig bronchoconstriction DR-1 = 10 (histamine H1-receptor) [μm/kg]
1 | 1.95 | Cc1cc(Br)cnc1CCCCNc1ncc(Cc2cccnc2)cc1O [1(h), 2-[4-(5-Bromo-3-methylpyrid-2-yl)butylamino]-3-hydroxy-5-(pyrid-3-ylmethyl)pyridine] | 0.016
2 | 9.55 | Oc1cc(Cc2cccnc2)cnc1NCCCC1CCCc2cccnc21 (stereo not shown) [2(e), 2-[3-(5,6,7,8-Tetrahydroquinol-8-yl)propylamino]-3-hydroxy-5-(pyrid-3-ylmethyl)pyridine] | 0.038
3 | 1.51 | Cc1cc(Br)cnc1CCCNc1ncc(Cc2cccnc2)cc1O [3(h), 2-[3-(5-Bromo-3-methylpyrid-2-yl)-propylamino]-3-hydroxy-5-(pyrid-3-ylmethyl)pyridine] | –

Row | Compound | Kb [1] [nM] | Guinea Pig bronchoconstriction DR-1 = 10 (histamine H1-receptor) [μm/kg]
4 | Cc1cc(Br)cnc1CCCCNc1ncc(Cc2cccnc2)cc1OP(=O)(O)O [1(i), 2-[4-(5-Bromo-3-methylpyrid-2-yl)butylamino]-5-(pyrid-3-ylmethyl)pyrid-3-yloxyphosphate] | 8.13 | 0.033
